Measurements from patent US10821097B2, “DBH inhibitors for treating or preventing memory loss” (Brandeis University, priority 2015, dated 2020).

Columns and labels:
[1] = test system: DBH; conditions: in vivo; cited from earlier work
[2] = up to 120 mg/day; cited from earlier work
[3] = target: T1, DBH (Rattus norvegicus, UniProt Q05754); conditions: cited from earlier work; for blood-brain barrier crossing, indicated by effect of injections on brain dopamine levels: Antabuse 100 mg/kg, Nepicastat 50 mg/kg, intraperitoneal
T1 construct: In rat studies, Antabuse (100 mg/kg) and Nepicastat (50 mg/kg) were injected intraperitoneally; host or cells: rat, in vivo (endogenous enzyme)
T1 sequence (Q05754 1-620): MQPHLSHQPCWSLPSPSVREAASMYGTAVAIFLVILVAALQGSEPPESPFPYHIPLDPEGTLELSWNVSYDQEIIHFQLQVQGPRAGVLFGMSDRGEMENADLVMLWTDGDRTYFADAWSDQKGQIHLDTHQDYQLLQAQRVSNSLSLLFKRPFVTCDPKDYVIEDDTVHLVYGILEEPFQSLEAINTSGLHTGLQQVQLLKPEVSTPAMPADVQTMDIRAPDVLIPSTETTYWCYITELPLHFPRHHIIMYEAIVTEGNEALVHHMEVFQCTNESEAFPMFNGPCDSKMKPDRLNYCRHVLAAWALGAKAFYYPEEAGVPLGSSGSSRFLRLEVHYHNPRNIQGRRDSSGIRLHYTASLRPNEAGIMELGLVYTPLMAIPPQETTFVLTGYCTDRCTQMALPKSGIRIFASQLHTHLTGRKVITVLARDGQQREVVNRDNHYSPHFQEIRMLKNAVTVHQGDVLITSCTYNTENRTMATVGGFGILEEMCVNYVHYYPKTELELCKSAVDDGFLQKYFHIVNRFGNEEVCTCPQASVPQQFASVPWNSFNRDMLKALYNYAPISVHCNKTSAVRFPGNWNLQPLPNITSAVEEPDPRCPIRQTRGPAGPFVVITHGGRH

[4] = test system: D1R; assay: light-stimulated dopamine release from LC axons, fEPSP in CA1 of hippocampal slices; format: cell-based; conditions: 10 uM, n=4, Schaffer collateral stimulation
From the text: The chemogenetic approach allows the acute memory deficits produced by graded decrease in LC function to be measured. This model then provides a rigorous and rapid screening method to determine whether the resulting memory deficits can be reversed by agents that enhance dopamine release (with or without noradrenaline stimulants). Results in FIG. 2 document the role of LC axons in producing functionally important dopamine release. The experiments were done in CA1 using synaptic stimulation of Schaffer collaterals to measure synaptic strength. FIG. 2, left: brief light stimulation of the hippocampus (arrow) produces a long-lasting enhancement of the fEPSP (normalized increase in charge) (n=5). This light-stimulated release of dopamine replicates the effect of direct application of dopamine (Huang and Kandel, 1995). […] Stimulation protocol: three sets of ˜18 Hz stimulation (5 msec light pulses)=a total of 60 pulses/set; 1 minute between sets. The LC was injected in vivo with AAV virus that produced channel-rhodopsin in cells containing tyrosine hydroxylase, an enzyme in the dopamine and noradrenaline synthesis pathway (see FIG. 1). The selective expression in noradrenergic cells in the LC is due to Cre expression driven by a tyrosine hydroxylase promoter. […] The response of CA1 pyramidal cells was measured by the field EPSP (fEPSP). […]

[5] = test system: LC; assay: event arena memory test in KORD mice with the LC inhibited by SALB; format: in vivo; conditions: SALB subcutaneously 10 minutes before encoding trial
[6] = IP, suspension in sterile saline

NCc1c[nH]c(=S)n1[C@H]1CCc2c(F)cc(F)cc2C1 [Nepicastat, 5-(aminomethyl)-1-[(2S)-5,7-difluoro-1,2,3,4-tetrahydronaphthalen-2-yl]-1,3-dihydro-2H-imidazole-2-thione]
effect on dopamine concentration and/or dopamine release [1]: increase the concentration of dopamine and/or increase dopamine release | tolerability [2]: well tolerated | blood-brain barrier crossing, indicated by effect of injections on brain dopamine levels [3]: cross the blood-brain barrier | dose reported to match the 100 mg/kg dose of Antabuse on DBH ([3]; IP): 50 mg/kg

CN1CCc2cc(Cl)c(O)cc2[C@H]2c3ccccc3CC[C@@H]21 [SCH39166]
enhancement of the fEPSP by light stimulation of LC axons in the presence of the antagonist [4]: no enhancement

CCN(CC)C(=S)SSC(=S)N(CC)CC [Disulfiram, 1,1′,1″,1′″-[disulfanediylbis(carbonothioylnitrilo)]tetraethane]
effect on dopamine concentration and/or dopamine release [1]: increase the concentration of dopamine and/or increase dopamine release | blood-brain barrier crossing, indicated by effect of injections on brain dopamine levels [3]: cross the blood-brain barrier | highest effective dose that didn't affect operant responses [3, 6]: 100 mg/kg | lowest effective concentration [3, 6]: 10 mg/kg

COC(=O)[C@@H]1C[C@H](O)C(=O)[C@H]2[C@@]1(C)CC[C@H]1C(=O)O[C@H](c3ccoc3)C[C@]21C [SALB, salvinorin B]
24 hr memory [5]: strongly reduce
